# Source: PubChem BioAssay (NCI)
#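 Method: 48-hour compound exposure of cells in 96-well plates, five concentrations, linear interpolation of endpoints. TGI marks complete inhibition of growth.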
# Tests used:
# Experiment in all cases: NCI tumour cell line growth inhibition, 48 h
# NCI/ADR-RES ovarian = tested on: NCI/ADR-RES ovarian
# UACC-62 melanoma = tested on: UACC-62 melanoma
# MCF7 breast = tested on: MCF7 breast
# HCT-116 colon = tested on: HCT-116 colon
# UACC-257 melanoma = tested on: UACC-257 melanoma
# SNB-19 CNS = tested on: SNB-19 CNS
# NCI-H522 lung = tested on: NCI-H522 lung
# LOX IMVI melanoma = tested on: LOX IMVI melanoma
# HCT-15 colon = tested on: HCT-15 colon
# COLO 205 colon = tested on: COLO 205 colon
# T-47D breast = tested on: T-47D breast
# BT-549 breast = tested on: BT-549 breast
# OVCAR-8 ovarian = tested on: OVCAR-8 ovarian
# SW-620 colon = tested on: SW-620 colon
# MDA-MB-435 = tested on: MDA-MB-435
# EKVX NSCLC = tested on: EKVX NSCLC
# PC-3 prostate = tested on: PC-3 prostate
# HS 578T breast = tested on: HS 578T breast
# SK-MEL-2 melanoma = tested on: SK-MEL-2 melanoma
# HT29 colon = tested on: HT29 colon
SMILES,TGI (NCI/ADR-RES ovarian) [µM],TGI (UACC-62 melanoma) [µM],TGI (MCF7 breast) [µM],TGI (HCT-116 colon) [µM],TGI (UACC-257 melanoma) [µM],TGI (SNB-19 CNS) [µM],TGI (NCI-H522 lung) [µM],TGI (LOX IMVI melanoma) [µM],TGI (HCT-15 colon) [µM],TGI (COLO 205 colon) [µM],TGI (T-47D breast) [µM],TGI (BT-549 breast) [µM],TGI (OVCAR-8 ovarian) [µM],TGI (SW-620 colon) [µM],TGI (MDA-MB-435) [µM],TGI (EKVX NSCLC) [µM],TGI (PC-3 prostate) [µM],TGI (HS 578T breast) [µM],TGI (SK-MEL-2 melanoma) [µM],TGI (HT29 colon) [µM]
Cc1cc(C)c2c(c1)C(=O)C1(C2)Cc2c(ccc(C)c2C)C1=O (stereo not drawn),> 100,> 100,> 100,> 100,> 100,> 100,> 100,> 100,> 100,> 100,> 100,> 100,> 100,> 100,> 100,> 100,> 100,> 100,> 100,
O=C(Nc1ccc(F)cc1)c1cc2ccc(O)cc2oc1=Nc1ccccc1F,51.8,> 100,> 100,> 100,> 100,,84,49.6,59,> 100,> 100,43.5,36.7,> 100,> 100,40.8,> 100,> 100,> 100,> 100
CC1(C)S[C@@H]2[C@H](NC(=O)/C=C/c3ccccc3)C(=O)N2[C@H]1C(=O)O,> 100,> 100,> 100,> 100,> 100,> 100,> 100,> 100,> 100,> 100,> 100,> 100,> 100,> 100,> 100,,> 100,> 100,> 100,> 100
Cc1cc(C)c(NS(=O)c2cccc([N+](=O)[O-])c2)c(C)c1 (stereo not drawn),> 100,,> 100,,> 100,> 100,,,> 100,> 100,> 100,> 100,> 100,> 100,> 100,,> 100,,,> 100
COc1ccc(C(=O)c2ccc(-n3c4ccccc4c4ccc5c(c43)C(=O)C=CC5=O)cc2)cc1,> 21.3,8.02,2.6,2.77,7.05,11,0.936,4.31,6.07,9.34,> 100,8.06,,,3.14,4.32,3.3,4.51,11.3,3.65
COc1cccc(-c2cc(=O)c3cccnc3[nH]2)c1,,> 100,> 100,> 100,> 100,> 100,> 100,> 100,> 100,,> 100,> 100,> 100,> 100,0.0855,> 100,> 100,> 100,> 100,0.561
COc1ccc2c(c1)CC[C@@H]1[C@@H]2CC[C@]2(C)[C@@H](O)/C(=C/c3ccncc3)C[C@@H]12,37.2,29.6,30.2,30,35.6,51.8,30.6,,23.6,16,28.9,31.6,28.2,24.8,27.3,70.6,25.5,32,31.1,15
CC(C)(C)OC(=O)N/N=C(/N)c1ccccc1,> 100,> 100,> 100,> 100,> 100,> 100,> 100,> 100,> 100,> 100,> 100,> 100,> 100,,> 100,> 100,> 100,,> 100,> 100
CC1(C)C(=O)C2(C#N)CCC1C2 (stereo not drawn),> 100,> 100,> 100,> 100,> 100,> 100,,> 100,> 100,> 100,> 100,> 100,> 100,> 100,> 100,> 100,> 100,> 100,> 100,> 100
CNC(=O)OCCN1c2ccccc2Sc2ccccc21,> 100,> 100,> 100,> 100,> 100,> 100,> 100,> 100,> 100,> 100,> 100,> 100,> 100,> 100,> 100,> 100,> 100,> 100,,> 100
COc1ccc2[nH]c3c(C)c4cnccc4c(C)c3c2c1,6.94,> 10,3.9,2.5,> 10,> 10,4.43,,3.4,4.44,> 10,> 10,2.2,3.4,2.84,> 10,> 10,> 10,> 10,3.41
CN(CC#N)C(=O)Cc1ccc([N+](=O)[O-])cc1,> 10,> 10,> 10,> 10,> 10,> 10,,> 10,> 10,> 10,> 10,> 10,> 10,> 10,> 10,> 10,> 10,> 10,> 10,> 10
COc1ccc(C2C(Cl)C(=O)N2NC(=O)c2ccc(N)cc2)cc1OC (stereo not drawn),5.16,16,24.7,3,29.1,30.5,3.75,3.55,21.3,30.3,24.9,18.3,16.4,11.2,19.1,35.2,25.7,,26.6,6.28
Cc1cc(Br)cc(C)c1NC(=O)C(=O)C1C(=O)C(CC2C(=O)c3ccccc3C2=O)C(=O)CC1(C)C (stereo not drawn),> 100,> 100,> 100,> 100,> 100,> 100,> 100,> 100,> 100,> 100,,> 100,> 100,> 100,> 100,> 100,> 100,> 100,> 100,> 100
CC1(C)O[C@@H](CP(c2ccccc2)c2ccccc2)[C@H](CP(c2ccccc2)c2ccccc2)O1,36,,,20.9,30.7,72.2,12.8,17.4,44.5,12.4,29.8,9.02,20.5,38.3,52.4,29.4,,,,47.7
O=C(N/C(=C/c1ccc(Cl)cc1)c1nc2ccccc2c(=O)n1Nc1ccc([N+](=O)[O-])cc1[N+](=O)[O-])c1ccccc1,> 100,> 100,> 100,> 100,> 100,> 100,> 100,> 100,> 100,> 100,> 100,> 100,> 100,> 100,> 100,,> 100,> 100,,> 100
NCCc1ccc2c(c1)C(=O)c1c(O)ccc(O)c1C2=O,> 82.9,39.7,> 100,> 40.3,> 100,29.6,,> 100,> 100,> 100,,> 100,9.19,> 100,> 100,6.73,26.1,> 100,> 100,
O=C(O)c1cc(N(Cc2ccccc2O)Cc2cc(O)ccc2O)ccc1O,> 100,> 100,> 100,> 100,> 100,> 100,,> 100,> 100,> 100,> 100,> 100,> 100,> 100,> 100,> 100,> 100,> 100,> 100,> 100
CCCCOc1ccc(S(=O)(=O)/N=C(\NN)Nc2ccc(Cl)cc2)cc1,76.3,> 100,> 100,42.9,68.7,> 100,,35.6,> 100,38.5,46.2,> 100,36.2,82.2,,> 100,33.1,,> 100,48.9
CC1OC(OC2C(O[C@@H]3C[C@@H]4CC[C@@H]5[C@H](CC[C@]6(C)[C@@H]7[C@H](C[C@@H]56)O[C@]5(CC[C@@H](C)CO5)[C@H]7C)[C@@]4(C)C[C@H]3O)OC(CO)C(OC3OC(CO)C(O)C(O)C3O)C2O)C(O)C(O)C1O (stereo partly drawn),3.88,3.62,3.65,13.1,3.3,3.66,2.4,,4.66,3.12,11.2,4.44,2.9,3.04,3.16,2.91,2.85,4.38,3.28,2.88
O=C(CCO)OCCCCCC/C=C\CCCCCC/C=C\CCCCCCCCOC(=O)CCO,32.7,32.9,40.3,29.9,30.9,32.9,30.1,36.6,29.1,> 100,35.9,33.1,36.3,80.4,45.7,32.3,30.8,,31,31.5
Cc1cc(=O)oc2c(CNC(C(=O)O)C(C)O)c(O)ccc12 (stereo not drawn),> 100,> 100,> 100,> 100,> 100,> 100,> 100,> 100,> 100,> 100,> 100,,> 100,> 100,> 100,> 100,> 100,> 100,> 100,> 100
CCOC(=O)c1c(N2CCOCC2)[nH]c(=O)c(C(c2ccc(Cl)c([N+](=O)[O-])c2)c2c(O)c(C(=O)OCC)c(N3CCOCC3)[nH]c2=O)c1O,> 100,> 100,69.6,63.6,> 100,79.3,55.2,48.1,> 100,> 100,48.8,75.1,37,58.7,> 100,> 100,50.1,> 100,,42.1
COc1ccc2c(c1)c1c3c(ccc4ncn2c43)N(CCN(C)C)CCN=1,1.96,1.78,1.91,1.52,3.66,1.96,0.806,1.53,1.31,1.83,6.05,,1.56,2.13,1.76,2.71,1.62,3.16,2.32,1.58
